Measured values as given in ChEMBL document CHEMBL5726897, “Pyridopyrimidinones and methods of use thereof” (2019).
pEC50: −log10 of the molar value.

Biological target: Glutamate NMDA receptor; GRIN1/GRIN2A (Homo sapiens, UniProt Q05586+Q12879)
Test: TBD: TBD
Format: protein-complex assay

Glutamate NMDA receptor; GRIN1/GRIN2A, sequence (Q12879 whole entry, other chains not shown): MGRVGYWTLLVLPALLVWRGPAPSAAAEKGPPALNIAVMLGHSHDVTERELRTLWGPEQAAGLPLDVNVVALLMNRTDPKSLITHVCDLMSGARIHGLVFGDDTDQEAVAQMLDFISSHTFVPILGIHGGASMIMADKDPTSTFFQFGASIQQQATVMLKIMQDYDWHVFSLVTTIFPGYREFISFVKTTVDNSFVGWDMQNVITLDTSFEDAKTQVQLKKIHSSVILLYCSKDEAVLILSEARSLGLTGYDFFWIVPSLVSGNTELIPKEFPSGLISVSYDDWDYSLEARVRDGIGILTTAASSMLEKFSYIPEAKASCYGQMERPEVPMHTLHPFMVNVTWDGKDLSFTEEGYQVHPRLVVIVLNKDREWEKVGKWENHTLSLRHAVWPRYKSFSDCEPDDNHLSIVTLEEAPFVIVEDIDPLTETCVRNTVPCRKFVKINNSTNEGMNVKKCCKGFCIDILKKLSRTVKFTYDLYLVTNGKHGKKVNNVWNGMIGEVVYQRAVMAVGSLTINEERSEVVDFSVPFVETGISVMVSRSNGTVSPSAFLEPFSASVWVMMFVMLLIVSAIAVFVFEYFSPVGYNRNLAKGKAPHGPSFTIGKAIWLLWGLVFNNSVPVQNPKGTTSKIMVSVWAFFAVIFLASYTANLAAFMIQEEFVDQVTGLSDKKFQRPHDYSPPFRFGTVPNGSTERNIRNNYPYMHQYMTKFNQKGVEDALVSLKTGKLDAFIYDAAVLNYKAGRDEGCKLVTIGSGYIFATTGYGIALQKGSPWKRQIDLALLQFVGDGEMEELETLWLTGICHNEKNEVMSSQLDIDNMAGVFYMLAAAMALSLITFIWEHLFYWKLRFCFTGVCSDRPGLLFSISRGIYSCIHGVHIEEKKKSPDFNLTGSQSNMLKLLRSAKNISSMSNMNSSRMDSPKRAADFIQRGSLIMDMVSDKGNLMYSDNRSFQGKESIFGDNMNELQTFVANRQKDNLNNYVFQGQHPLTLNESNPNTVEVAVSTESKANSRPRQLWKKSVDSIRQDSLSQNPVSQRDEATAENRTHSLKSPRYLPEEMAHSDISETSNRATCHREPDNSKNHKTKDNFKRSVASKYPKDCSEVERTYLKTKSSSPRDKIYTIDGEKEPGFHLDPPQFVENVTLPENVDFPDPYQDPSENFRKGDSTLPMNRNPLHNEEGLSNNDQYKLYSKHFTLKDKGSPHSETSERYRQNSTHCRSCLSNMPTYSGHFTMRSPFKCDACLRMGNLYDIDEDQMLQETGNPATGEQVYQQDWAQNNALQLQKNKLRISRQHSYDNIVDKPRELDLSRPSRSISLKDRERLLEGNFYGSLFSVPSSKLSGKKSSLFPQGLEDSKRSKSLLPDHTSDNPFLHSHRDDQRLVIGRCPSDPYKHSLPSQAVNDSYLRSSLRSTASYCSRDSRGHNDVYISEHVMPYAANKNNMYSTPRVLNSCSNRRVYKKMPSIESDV

In the case of CCN(Cc1cc(=O)n2c(OC)cccc2n1)c1ccc(F)cc1, the pEC50 was 5.36.
